Drawing on patent US9598421B2, “Imidazopyridazine compounds” (Pfizer Inc., priority 2014, dated 2017), this text covers IC50 for 39 compounds.

Where a name gives a salt, the structure may show the parent alone.

Human PDE4A, sequence (P27815 other isoform, or with tags, fused parts or gaps): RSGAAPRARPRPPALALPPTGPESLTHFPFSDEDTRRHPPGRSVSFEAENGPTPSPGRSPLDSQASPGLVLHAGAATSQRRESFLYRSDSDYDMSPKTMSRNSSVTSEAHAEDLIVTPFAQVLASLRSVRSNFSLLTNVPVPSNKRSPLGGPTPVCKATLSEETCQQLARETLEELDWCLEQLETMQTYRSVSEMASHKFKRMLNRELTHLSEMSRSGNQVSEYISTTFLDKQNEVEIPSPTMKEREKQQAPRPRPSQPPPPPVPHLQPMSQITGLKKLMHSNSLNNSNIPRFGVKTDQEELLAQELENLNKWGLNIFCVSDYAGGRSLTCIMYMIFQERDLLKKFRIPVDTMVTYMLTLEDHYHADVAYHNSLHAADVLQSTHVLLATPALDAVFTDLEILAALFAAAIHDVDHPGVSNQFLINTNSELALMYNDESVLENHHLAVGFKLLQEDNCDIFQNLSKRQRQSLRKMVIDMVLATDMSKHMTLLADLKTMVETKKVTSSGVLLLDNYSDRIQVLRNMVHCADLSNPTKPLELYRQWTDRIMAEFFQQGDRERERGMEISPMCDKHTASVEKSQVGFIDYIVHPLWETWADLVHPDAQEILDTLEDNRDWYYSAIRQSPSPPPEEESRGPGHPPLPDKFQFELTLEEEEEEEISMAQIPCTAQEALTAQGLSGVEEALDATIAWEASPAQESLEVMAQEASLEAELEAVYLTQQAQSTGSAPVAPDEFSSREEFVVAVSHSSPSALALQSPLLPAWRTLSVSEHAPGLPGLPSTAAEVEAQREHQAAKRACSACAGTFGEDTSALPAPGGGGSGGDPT
Human PDE4D, sequence (Q08499 186-808): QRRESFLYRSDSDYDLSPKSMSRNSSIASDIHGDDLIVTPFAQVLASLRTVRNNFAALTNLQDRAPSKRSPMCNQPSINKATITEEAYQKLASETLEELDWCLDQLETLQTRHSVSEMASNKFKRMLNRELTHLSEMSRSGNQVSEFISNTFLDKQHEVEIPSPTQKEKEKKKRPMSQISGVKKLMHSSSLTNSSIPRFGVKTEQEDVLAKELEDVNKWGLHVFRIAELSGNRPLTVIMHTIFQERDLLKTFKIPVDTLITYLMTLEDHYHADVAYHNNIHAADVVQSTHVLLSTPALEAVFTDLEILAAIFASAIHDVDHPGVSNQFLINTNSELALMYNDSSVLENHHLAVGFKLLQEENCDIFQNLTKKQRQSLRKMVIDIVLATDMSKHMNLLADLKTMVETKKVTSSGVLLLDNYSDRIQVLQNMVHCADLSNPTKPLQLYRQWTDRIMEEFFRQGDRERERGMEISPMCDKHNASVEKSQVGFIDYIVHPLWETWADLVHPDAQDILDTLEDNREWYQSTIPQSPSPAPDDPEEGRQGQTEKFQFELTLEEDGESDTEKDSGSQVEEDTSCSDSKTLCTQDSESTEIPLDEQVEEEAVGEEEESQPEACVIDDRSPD

The first assay addresses Human PDE4A (Homo sapiens (Human), UniProt P27815). In words: PDE4A Scintillation Proximity Assay (SPA), inhibition of enzyme activity. Particulars: human recombinant enzyme, 1 μM cAMP substrate, 30 min at 25° C., geometric mean of 2-9 determinations unless otherwise indicated, read-out: Human PDE4A FL. The format is biochemical. On the technique in general: SPA uses beads or plates that emit light when radiolabelled molecules are held near them.
`CCNC(=O)c1nc2cccnn2c1-c1ccc(Cl)c(F)c1` [Example 81, 3-(4-chloro-3-fluorophenyl)-N-ethylimidazo[1,2-b]pyridazine-2-carboxamide]: the IC50 came out at 7.86 nM.
For `Cc1cc(C#N)c(F)cc1-c1c(C(=O)NC2CC2)nc2cccnn12` [Example 19, 3-(4-cyano-5-fluoro-2-methylphenyl)-N-cyclopropylimidazo[1,2-b]pyridazine-2-carboxamide], the IC50 was 16.9 nM.
Regarding `O=C(Nc1cn[nH]c1)c1nc2cccnn2c1-c1ccc(Cl)c(F)c1` [Example 82, 3-(4-chloro-3-fluorophenyl)-N-(1H-pyrazol-4-yl)imidazo[1,2-b]pyridazine-2-carboxamide], the IC50 was 12 nM.
`O=C(N[C@@H]1C[C@@H]1F)c1nc2cccnn2c1-c1ccc(Cl)c(F)c1` [Example 45, 3-(4-chloro-3-fluorophenyl)-N-[(1R,2S)-2-fluorocyclopropyl]imidazo[1,2-b]pyridazine-2-carboxamide]: the IC50 is 2.91 nM.
Take `COc1ccc(-c2c(C(=O)N3CCC3)nc3cccnn23)c(F)c1` [Example 73, azetidin-1-yl[3-(2-fluoro-4-methoxyphenyl)imidazo[1,2-b]pyridazin-2-yl]methanone]: the IC50 amounted to 165 nM.
Regarding `CCCNC(=O)c1nc2cccnn2c1-c1cc(F)cc(Cl)c1` [Example 34, 3-(3-chloro-5-fluorophenyl)-N-propylimidazo[1,2-b]pyridazine-2-carboxamide], the IC50 came to 29.5 nM.
Same read-out and setting: as for `Cc1cc(C#N)c(F)cc1-c1c(C(=O)NC(C)C)nc2cccnn12` [Example 99, 3-(4-cyano-5-fluoro-2-methylphenyl)-N-(propan-2-yl)imidazo[1,2-b]pyridazine-2-carboxamide], the figure is 19.8 nM; as for `O=C(Nc1ccn[nH]1)c1nc2cccnn2c1-c1ccc(Cl)cc1` [Example 103, 3-(4-chlorophenyl)-N-(1H-pyrazol-5-yl)imidazo[1,2-b]pyridazine-2-carboxamide], 62.7 nM.
The same measure, in the same setting: as for `CN(C(=O)c1nc2cccnn2c1-c1ccc(Cl)c(F)c1)C1CC1` [Example 21, 3-(4-chloro-3-fluorophenyl)-N-cyclopropyl-N-methylimidazo[1,2-b]pyridazine-2-carboxamide], the figure is 53.7 nM; as for `O=C(c1nc2cccnn2c1-c1cc(F)c(Cl)cc1F)N1CCC1` [Example 91, azetidin-1-yl[3-(4-chloro-2,5-difluorophenyl)imidazo[1,2-b]pyridazin-2-yl]methanone], 12.6 nM; as for `Cc1ccc(-c2c(C(=O)NC3CC3)nc3cccnn23)cc1F` [Example 41, N-cyclopropyl-3-(3-fluoro-4-methylphenyl)imidazo[1,2-b]pyridazine-2-carboxamide], 3.13 nM.
As for `Cc1cc(Cl)c(F)cc1-c1c(C(=O)NC(C)C)nc2cccnn12` [Example 97, 3-(4-chloro-5-fluoro-2-methylphenyl)-N-(propan-2-yl)imidazo[1,2-b]pyridazine-2-carboxamide], the IC50 was 5.48 nM.
`Cc1cc(-c2c(C(=O)NC3CC3)nc3cccnn23)c(F)cc1C#N` [Example 17, 3-(4-cyano-2-fluoro-5-methylphenyl)-N-cyclopropylimidazo[1,2-b]pyridazine-2-carboxamide]: the IC50 amounted to 89.9 nM.
On the same count and under the same terms, the figure for `O=C(c1nc2cccnn2c1-c1cccc(Cl)c1)N1CCC1` [Example 84, azetidin-1-yl[3-(3-chlorophenyl)imidazo[1,2-b]pyridazin-2-yl]methanone] is 16.7 nM; for `O=C(c1nc2cccnn2c1-c1ccc2c(c1)OC(F)(F)O2)N1CCC1` [Example 86, azetidin-1-yl[3-(2,2-difluoro-1,3-benzodioxol-5-yl)imidazo[1,2-b]pyridazin-2-yl]methanone] it is 5.83 nM; for `Cc1cc(Cl)ccc1-c1c(C(=O)N2CCC2)nc2cccnn12` [Example 56, azetidin-1-yl[3-(4-chloro-2-methylphenyl)imidazo[1,2-b]pyridazin-2-yl]methanone] it is 22.7 nM.
On the same count and under the same terms, as for `O=C(NC1CC1)c1nc2cccnn2c1-c1ccc2ncnn2c1` [Example 6, N-Cyclopropyl-3-([1,2,4]triazolo[1,5-a]pyridin-6-yl)imidazo[1,2-b]pyridazine-2-carboxamide], the figure is 64.4 nM.

A further assay addresses Human PDE4D (Homo sapiens (Human), UniProt Q08499). As to the kind of experiment: PDE4D Scintillation Proximity Assay (SPA), inhibition of enzyme activity. Particulars: human recombinant enzyme, 1 μM cAMP substrate, 30 min at 25° C., geometric mean of 2-9 determinations unless otherwise indicated, read-out: Human PDE4D FL. The format is biochemical.
For the compound `O=C(NC1CC1)c1nc2cccnn2c1-c1cnc2ccoc2c1` [Example 38, N-cyclopropyl-3-(furo[3,2-b]pyridin-6-yl)imidazo[1,2-b]pyridazine-2-carboxamide], the IC50 came to 11200 nM.
With `Cc1ccc(-c2c(C(=O)N[C@@H]3C[C@@H]3F)nc3cccnn23)c(F)c1` [Example 72, N-[(1R,2S)-2-fluorocyclopropyl]-3-(2-fluoro-4-methylphenyl)imidazo[1,2-b]pyridazine-2-carboxamide], the IC50 was 6590 nM.
Turning to `CC(C)NC(=O)c1nc2cccnn2c1-c1cc(F)c(Cl)cc1F` [Example 100, 3-(4-chloro-2,5-difluorophenyl)-N-(propan-2-yl)imidazo[1,2-b]pyridazine-2-carboxamide], the IC50 stood at 766 nM.
As to `Cc1ccc(C#N)cc1-c1c(C(=O)NC2CC2)nc2cccnn12` [Example 80, 3-(5-cyano-2-methylphenyl)-N-cyclopropylimidazo[1,2-b]pyridazine-2-carboxamide], the IC50 is above 25400 nM.
With `O=C(c1nc2cccnn2c1-c1cnc2ccnn2c1)N1CCC1` [Example 74, azetidin-1-yl[3-(pyrazolo[1,5-a]pyrimidin-6-yl)imidazo[1,2-b]pyridazin-2-yl]methanone], the IC50 worked out at 10500 nM.
Turning to `Cc1cc(-c2c(C(=O)N3CCC3)nc3cccnn23)ccc1Cl` [Example 51, azetidin-1-yl[3-(4-chloro-3-methylphenyl)imidazo[1,2-b]pyridazin-2-yl]methanone], the IC50 is 2810 nM.
Regarding `O=C(NC1CC1)c1nc2cccnn2c1-c1ccc(Cl)c(Cl)c1` [Example 11, N-cyclopropyl-3-(3,4-dichlorophenyl)imidazo[1,2-b]pyridazine-2-carboxamide], the IC50 came out at 334 nM.
In the case of `O=C(c1nc2cccnn2c1-c1ccnc(C(F)(F)F)c1)N1CCC1` [Example 43, azetidin-1-yl{3-[2-(trifluoromethyl)pyridin-4-yl]imidazo[1,2-b]pyridazin-2-yl}methanone], the IC50 was above 16900 nM.
Take `CCNC(=O)c1nc2cccnn2c1-c1ccc(Cl)cc1C` [Example 95, 3-(4-chloro-2-methylphenyl)-N-ethylimidazo[1,2-b]pyridazine-2-carboxamide]: the IC50 turned out to be 14800 nM.
The same measure, in the same setting: as for `O=C(NC1CC1(F)F)c1nc2cccnn2c1-c1ccc(Cl)c(F)c1` (stereo not drawn) [Example 44, 3-(4-chloro-3-fluorophenyl)-N-(2,2-difluorocyclopropyl)imidazo[1,2-b]pyridazine-2-carboxamide], the figure is 320 nM; as for `O=C(N[C@@H]1C[C@@H]1F)c1nc2cccnn2c1-c1cncc(Cl)c1` [Example 69, 3-(5-chloropyridin-3-yl)-N-[(1R,2S)-2-fluorocyclopropyl]imidazo[1,2-b]pyridazine-2-carboxamide], 3330 nM.
On to `O=C(NC1CC1)c1nc2cccnn2c1-c1cnc2ccnn2c1` [Example 78, N-cyclopropyl-3-(pyrazolo[1,5-a]pyrimidin-6-yl)imidazo[1,2-b]pyridazine-2-carboxamide], for which the IC50 was found to be 6490 nM.
On the same count and under the same terms, as for `O=C(c1nc2cccnn2c1-c1ccc2ncnn2c1)N1CCC1` [Example 16, azetidin-1-yl[3-([1,2,4]triazolo[1,5-a]pyridin-6-yl)imidazo[1,2-b]pyridazin-2-yl]methanone], the figure is above 27500 nM.
Regarding `O=C(c1nc2cccnn2c1-c1ccc(Cl)cc1Cl)N1CCC1` [Example 65, azetidin-1-yl[3-(2,4-dichlorophenyl)imidazo[1,2-b]pyridazin-2-yl]methanone], the IC50 came to 3720 nM.
As to `Cc1ccc(Cl)cc1-c1c(C(=O)N2CCC2)nc2cccnn12` [Example 64, azetidin-1-yl[3-(5-chloro-2-methylphenyl)imidazo[1,2-b]pyridazin-2-yl]methanone], the IC50 came to 844 nM.

Still in this assay, the particulars now being: read-out: Human PDE4D FL.
On to `Cc1cc(NC(=O)c2nc3cccnn3c2-c2ccc(Cl)cc2)no1` [Example 58, 3-(4-chlorophenyl)-N-(5-methyl-1,2-oxazol-3-yl)imidazo[1,2-b]pyridazine-2-carboxamide, trifluoroacetate salt], for which the IC50 was 831 nM.
Consider `CC(=O)c1ccc(F)c(-c2c(C(=O)N3CCC3)nc3cccnn23)c1` [Example 63, 1-[3-[2-(azetidin-1-ylcarbonyl)imidazo[1,2-b]pyridazin-3-yl]-4-fluorophenyl]ethanone, formate salt], for which the IC50 was found to be 394 nM.
For the compound `Cc1ccc(-c2c(C(=O)N3CCC3)nc3cccnn23)c(C)c1Cl` [Example 66, azetidin-1-yl[3-(3-chloro-2,4-dimethylphenyl)imidazo[1,2-b]pyridazin-2-yl]methanone, formate salt], the IC50 is 3390 nM.
`O=C(c1nc2cccnn2c1-c1ccc2c(c1)OCCO2)N1CCC1` [Example 67, azetidin-1-yl[3-(2,3-dihydro-1,4-benzodioxin-6-yl)imidazo[1,2-b]pyridazin-2-yl]methanone, formate salt]: the IC50 came out at 2260 nM.
The same measure, in the same setting: as for `O=C(c1nc2cccnn2c1-c1ccc2nccnc2c1)N1CCC1` [Example 62, azetidin-1-yl[3-(quinoxalin-6-yl)imidazo[1,2-b]pyridazin-2-yl]methanone, formate salt], the figure is 11000 nM.
With `O=C(NCCc1ccccc1O)c1nc2cccnn2c1-c1ccc(Cl)cc1` [Example 57, 3-(4-chlorophenyl)-N-[2-(2-hydroxyphenyl)ethyl]imidazo[1,2-b]pyridazine-2-carboxamide, formate salt], the IC50 is above 21800 nM.
Turning to `Cn1ncc(NC(=O)c2nc3cccnn3c2-c2ccc(Cl)cc2)n1` [Example 59, 3-(4-chlorophenyl)-N-(2-methyl-2H-1,2,3-triazol-4-yl)imidazo[1,2-b]pyridazine-2-carboxamide, trifluoroacetate salt], the IC50 turned out to be 749 nM.
